Reference: ChEMBL document CHEMBL1268971, “4,5-Dihydro-1H-pyrazolo[4,3-h]quinazolines as potent and selective Polo-like kinase 1 (PLK1) inhibitors” (Bioorg Med Chem Lett, 2010)
Values after ≈ are worked out from the molar mass of the structure shown. Active and inactive are the calls of the source. The calls are words filed in the database; no cut-off is given here.

Columns and labels:
[1] = Terminal half life in CD1 mouse at 10 mg/kg, iv administered as single dose by LC/MS/MS analysis; format: ADME, organism-based; set-up: dose 10 mg/kg, route intravenous; details: in vivo, read-out: beta t1/2 (converted)
A2780 [2] = test: Antiproliferative activity against […] human A2780 cells after 72 hrs by CellTiter-Glo assay; format: functional, cell-based; details: A2780, 72 h
A2780 [3] = test: cells; details: Homo sapiens, A2780, 72 h
Mus musculus [4] = test: Toxicity in CD1 mouse xenografted with human HCT116 cells assessed as reversible body weight loss at 60 mg/kg, po daily administered on day 1, 2, 3 post-implantation in weekly schedule of 2 cycles; details: in vivo
[5] = Solubility of the compound at 105 Tween 80; format: physicochemical
[6] = AUC (0 to infinity) in CD1 mouse at 10 mg/kg, iv administered as single dose by LC/MS/MS analysis; format: ADME, organism-based; set-up: time infinity, dose 10 mg/kg, route intravenous; details: plasma
A2780 [7] = test: Induction of cell cycle arrest in human A2780 cells assessed as accumulation at G2/M phase at 0.005 to 0.5 uM after 24 hrs; format: functional, cell-based
[8] = biological target: Serine/threonine-protein kinase Nek6 (Homo sapiens, UniProt Q9HC98); test: Inhibition of NEK6
Chain of Serine/threonine-protein kinase Nek6 (Q9HC98 whole entry): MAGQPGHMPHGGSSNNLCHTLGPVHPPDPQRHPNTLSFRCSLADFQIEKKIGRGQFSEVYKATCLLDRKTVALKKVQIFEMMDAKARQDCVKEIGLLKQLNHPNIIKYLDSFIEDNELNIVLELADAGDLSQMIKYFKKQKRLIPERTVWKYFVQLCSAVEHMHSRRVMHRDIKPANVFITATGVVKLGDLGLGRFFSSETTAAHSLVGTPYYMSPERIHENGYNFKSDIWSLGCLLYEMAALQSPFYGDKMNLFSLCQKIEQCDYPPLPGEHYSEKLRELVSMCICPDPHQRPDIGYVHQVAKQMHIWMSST

MIA PaCa-2 = test: Antiproliferative activity against human MIAPaCa2 cells after 72 hrs by CellTiter-Glo assay; format: functional, cell-based; details: MIA PaCa-2, 72 h
HCT-116 [9] = test: Induction of apoptosis in human HCT116 cells assessed as induction of PARP cleavage at 0.005 to 0.5 uM after 24 hrs; format: functional, cell-based
U2OS [10] = test: Induction of cell cycle arrest in human U2OS cells assessed as pSer46 TCTP signal inhibition of after 1 hr by array scan assay; format: functional, cell-based
[11] = biological target: Serine/threonine-protein kinase PLK3 (Homo sapiens, UniProt Q9H4B4); test: Inhibition of PLK3
Chain of Serine/threonine-protein kinase PLK3 (Q9H4B4 whole entry): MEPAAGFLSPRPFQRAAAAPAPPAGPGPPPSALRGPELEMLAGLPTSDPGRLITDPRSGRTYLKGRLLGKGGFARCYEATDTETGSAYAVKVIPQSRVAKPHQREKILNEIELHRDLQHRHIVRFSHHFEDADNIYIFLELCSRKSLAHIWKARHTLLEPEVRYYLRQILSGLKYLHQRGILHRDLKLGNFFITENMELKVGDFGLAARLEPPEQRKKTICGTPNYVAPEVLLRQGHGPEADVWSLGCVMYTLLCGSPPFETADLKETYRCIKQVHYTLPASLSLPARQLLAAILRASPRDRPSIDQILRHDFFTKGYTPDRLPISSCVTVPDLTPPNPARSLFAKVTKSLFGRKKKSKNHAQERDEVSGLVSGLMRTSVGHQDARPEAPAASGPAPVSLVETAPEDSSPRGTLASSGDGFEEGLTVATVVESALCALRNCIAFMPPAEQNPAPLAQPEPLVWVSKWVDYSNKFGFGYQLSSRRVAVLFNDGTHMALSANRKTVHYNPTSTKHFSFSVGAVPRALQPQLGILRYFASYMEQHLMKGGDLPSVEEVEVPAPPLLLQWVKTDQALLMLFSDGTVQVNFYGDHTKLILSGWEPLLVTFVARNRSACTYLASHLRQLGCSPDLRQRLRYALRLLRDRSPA

A2780 [12] = test: Induction of apoptosis in human A2780 cells assessed as induction of PARP cleavage at 0.005 to 0.5 uM after 24 hrs
[13] = Intrinsic clearance in human liver microsomes; format: ADME, Microsome
[14] = Antiproliferative activity against human KU812 cells after 72 hrs by CellTiter-Glo assay; format: functional, cell-based; details: KU812, 72 h
[15] = Inhibition of PDGFR
LoVo = test: Antiproliferative activity against human LoVo cells after 72 hrs by CellTiter-Glo assay; format: functional, cell-based
A2780 [16] = test: Antitumor against human A2780 cells xenografted in CD1 mouse assessed as tumor growth inhibition at 30 mg/kg, iv BID administered on day 1, 2, 3 post-implantation measured on day 12; format: functional; details: read-out: TGI
[17] = Volume of distribution at steady state in CD1 mouse at 10 mg/kg, iv administered as single dose by LC/MS/MS analysis; format: ADME, organism-based; set-up: dose 10 mg/kg, route intravenous; details: in vivo, read-out: Vdss
HT-29 = test: Antiproliferative activity against human HT-29 cells after 72 hrs by CellTiter-Glo assay; format: functional, cell-based; details: HT-29, 72 h
[18] = Terminal half life in CD1 mouse at 10 mg/kg, po administered as single dose by LC/MS/MS analysis; format: ADME, organism-based; set-up: dose 10 mg/kg, route oral; details: in vivo, read-out: beta t1/2 (converted)
[19] = Oral bioavailability in CD1 mouse at 10 mg/kg administered as single dose by LC/MS/MS analysis; format: ADME, organism-based; details: in vivo
[20] = Antiproliferative activity against human A2780/E6 cells after 72 hrs by CellTiter-Glo assay; format: functional, cell-based; details: A2780/E6, 72 h
[21] = Antiproliferative activity against human KMS11 cells after 72 hrs by CellTiter-Glo assay; format: functional, cell-based; details: KMS-11, 72 h
[22] = AUC (0 to infinity) in CD1 mouse at 10 mg/kg, po administered as single dose by LC/MS/MS analysis; format: ADME, organism-based; set-up: time infinity, dose 10 mg/kg, route oral; details: plasma
U2OS [23] = test: Induction of cell cycle arrest in human U2OS cells assessed as accumulation of pSer10 histone H3-positive cells at 260 nM after 24 hrs by array scan assay
[24] = Clearance in CD1 mouse at 10 mg/kg, iv administered as single dose by LC/MS/MS analysis; format: ADME, organism-based; set-up: dose 10 mg/kg, route intravenous; details: in vivo
Mus musculus [25] = test: Toxicity in CD1 mouse xenografted with human A2780 cells assessed as reversible body weight loss at 30 mg/kg, iv BID administered on day 1, 2, 3 post-implantation measured on day 12; format: organism-based; set-up: dose 30 mg/kg, route intravenous; details: in vivo
[26] = Solubility of the compound at pH 7; format: physicochemical; details: buffer
[27] = Inhibition of casein kinase 2
[28] = biological target: Serine/threonine-protein kinase PLK2 (Homo sapiens, UniProt Q9NYY3); test: Inhibition of PLK2
Chain of Serine/threonine-protein kinase PLK2 (Q9NYY3 whole entry): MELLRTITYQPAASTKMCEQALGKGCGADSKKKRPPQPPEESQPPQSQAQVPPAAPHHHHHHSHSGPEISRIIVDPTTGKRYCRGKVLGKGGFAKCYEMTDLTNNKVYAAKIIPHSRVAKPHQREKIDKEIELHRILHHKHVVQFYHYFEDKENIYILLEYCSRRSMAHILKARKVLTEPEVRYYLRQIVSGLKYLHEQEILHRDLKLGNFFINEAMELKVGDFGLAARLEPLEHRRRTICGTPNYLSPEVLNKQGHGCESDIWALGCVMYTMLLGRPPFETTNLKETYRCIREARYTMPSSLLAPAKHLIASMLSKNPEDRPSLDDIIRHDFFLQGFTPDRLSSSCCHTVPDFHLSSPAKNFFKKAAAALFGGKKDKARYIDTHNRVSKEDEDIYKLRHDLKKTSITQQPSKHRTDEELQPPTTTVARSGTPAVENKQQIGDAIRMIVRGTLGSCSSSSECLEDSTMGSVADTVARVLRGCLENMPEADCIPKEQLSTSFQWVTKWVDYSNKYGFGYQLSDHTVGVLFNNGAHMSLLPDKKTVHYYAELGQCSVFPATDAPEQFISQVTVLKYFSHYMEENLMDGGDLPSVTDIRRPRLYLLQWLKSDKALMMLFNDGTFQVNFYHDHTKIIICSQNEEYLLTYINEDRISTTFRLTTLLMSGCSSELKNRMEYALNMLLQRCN

[29] = biological target: ALK tyrosine kinase receptor (Homo sapiens, UniProt Q9UM73); test: Inhibition of ALK
Chain of ALK tyrosine kinase receptor (Q9UM73 whole entry): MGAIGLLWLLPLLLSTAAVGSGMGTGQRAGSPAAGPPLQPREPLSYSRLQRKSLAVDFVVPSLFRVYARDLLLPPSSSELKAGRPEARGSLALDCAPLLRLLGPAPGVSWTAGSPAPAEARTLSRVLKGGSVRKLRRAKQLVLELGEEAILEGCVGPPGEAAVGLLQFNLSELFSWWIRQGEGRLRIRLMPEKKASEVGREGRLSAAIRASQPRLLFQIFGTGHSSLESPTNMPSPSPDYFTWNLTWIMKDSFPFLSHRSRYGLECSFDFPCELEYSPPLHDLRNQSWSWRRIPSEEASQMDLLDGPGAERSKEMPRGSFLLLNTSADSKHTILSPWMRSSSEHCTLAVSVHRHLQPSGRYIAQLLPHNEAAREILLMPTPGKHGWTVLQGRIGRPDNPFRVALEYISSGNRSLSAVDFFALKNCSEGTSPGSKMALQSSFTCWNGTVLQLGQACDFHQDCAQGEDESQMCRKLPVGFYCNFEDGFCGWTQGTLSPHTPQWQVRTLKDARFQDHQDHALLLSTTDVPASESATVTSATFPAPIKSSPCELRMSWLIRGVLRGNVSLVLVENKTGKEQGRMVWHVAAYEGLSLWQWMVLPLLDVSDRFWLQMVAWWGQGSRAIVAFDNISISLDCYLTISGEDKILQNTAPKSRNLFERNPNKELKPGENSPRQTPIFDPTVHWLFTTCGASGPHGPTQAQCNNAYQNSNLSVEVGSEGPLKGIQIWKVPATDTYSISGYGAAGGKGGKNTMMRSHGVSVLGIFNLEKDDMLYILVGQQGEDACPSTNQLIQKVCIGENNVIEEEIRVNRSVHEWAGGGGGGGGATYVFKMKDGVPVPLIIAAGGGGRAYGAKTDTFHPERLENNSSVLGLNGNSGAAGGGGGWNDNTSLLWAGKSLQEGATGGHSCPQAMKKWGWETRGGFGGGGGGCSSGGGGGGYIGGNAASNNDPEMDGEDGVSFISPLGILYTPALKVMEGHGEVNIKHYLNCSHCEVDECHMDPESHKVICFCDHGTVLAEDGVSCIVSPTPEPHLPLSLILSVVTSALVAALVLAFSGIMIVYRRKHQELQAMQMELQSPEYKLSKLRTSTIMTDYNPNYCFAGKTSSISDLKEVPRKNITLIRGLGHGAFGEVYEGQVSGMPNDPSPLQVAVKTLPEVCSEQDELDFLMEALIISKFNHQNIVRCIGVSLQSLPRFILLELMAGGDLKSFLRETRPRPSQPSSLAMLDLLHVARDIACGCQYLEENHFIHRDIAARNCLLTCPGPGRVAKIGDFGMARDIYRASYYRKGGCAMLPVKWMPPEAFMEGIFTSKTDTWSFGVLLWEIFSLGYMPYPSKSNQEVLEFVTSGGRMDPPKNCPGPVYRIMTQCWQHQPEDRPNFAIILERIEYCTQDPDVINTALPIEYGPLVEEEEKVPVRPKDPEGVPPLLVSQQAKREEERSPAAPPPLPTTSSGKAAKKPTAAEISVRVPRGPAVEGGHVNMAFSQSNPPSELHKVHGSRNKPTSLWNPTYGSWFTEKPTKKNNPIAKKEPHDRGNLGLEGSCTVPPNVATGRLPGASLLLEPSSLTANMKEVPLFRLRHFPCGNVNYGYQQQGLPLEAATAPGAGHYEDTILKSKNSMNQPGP

HCT-116 [30] = test: Antiproliferative activity against human HCT116 cells after 72 hrs by CellTiter-Glo assay; format: functional, cell-based; details: HCT-116, 72 h
PANC-1 = test: Antiproliferative activity against human PANC1 cells after 72 hrs by CellTiter-Glo assay; format: functional, cell-based; details: PANC-1, 72 h
U2OS [31] = test: Induction of cell cycle arrest in human U2OS cells assessed as accumulation of cyclin B1-positive cells at 320 nM after 24 hrs by array scan assay
HCT-116 [32] = test: Antitumor against human HCT116 cells xenografted in CD1 mouse assessed as tumor growth inhibition at 30 mg/kg, iv BID administered on day 1, 2 post-implantation in weekly schedule of 3 cycles measured on day 32; format: functional; details: read-out: TGI
[33] = Antiproliferative activity against human 1A9PTX22 cells after 72 hrs by CellTiter-Glo assay; format: functional, cell-based; details: 1A9/ptx-22, 72 h

half-life [1]: 0.92 h
IC50 (A2780 [2]): 21 nM
IC50 (A2780 [3]): 21 nM
solubility [5]: > 3200 µg/mL
AUC(0-inf) [6]: 4.97 µM·h
IC50 [8]: 1660 nM
IC50 (MIA PaCa-2): 52 nM
IC50 (U2OS [10]): 95 nM
IC50 [11]: 1440 nM
CLint scaled [13]: 25.7 mL/min/kg
IC50 [15]: > 10000 nM
IC50 (LoVo): 7 nM
Vd [17]: 3.39 L/kg
IC50 (HT-29): 8 nM
half-life [18]: 1.44 h
bioavailability [19]: 21%
AUC(0-inf) [22]: 1.04 µM·h
clearance [24]: 70.2 mL/min/kg
solubility [26]: 72 µM (≈ 36.2 µg/mL)
IC50 [27]: 140 nM
IC50 [28]: 3520 nM
IC50 [29]: > 10000 nM
IC50 (HCT-116 [30]): 41 nM
IC50 (PANC-1): 126 nM
SMILES: CN1CCN(c2ccc(OC(F)(F)F)c(Nc3ncc4c(n3)-c3c(c(C(N)=O)nn3C)CC4)c2)CC1
Activity (Mus musculus [4]): 13%
Activity (A2780 [7]): Active
Activity (HCT-116 [9]): Active
Activity (A2780 [12]): Active
IC50 [14]: 2 nM
inhibition in vivo at 30 mg/kg (A2780 [16]): 74%
IC50 [20]: 5 nM
IC50 [21]: 14 nM
Activity (U2OS [23]): 20%
Activity (Mus musculus [25]): 19%
Activity (U2OS [31]): 20%
inhibition in vivo at 30 mg/kg (HCT-116 [32]): 81%
IC50 [33]: 38 nM
